Reference: patent publication US20260293894A1, “FUSED PYRROLIDINE-2-ONE HERBICIDAL COMPOUNDS” (SYNGENTA CROP PROTECTION AG, priority 2023, published 2026)

What was measured:
Format in all cases: in vivo
Details in all cases: 1000 g/Ha, evaluated after 13 days, glasshouse
[1] = system: Amaranthus palmeri (AMAPA); assay: Post-emergence herbicidal activity, percentage damage to AMAPA
Experimental: (§1) Seeds of a variety of test species are sown in standard soil in pots Amaranthus palmeri (AMAPA), Amaranthus retroflexus (AMARE), Setaria faberi (SETFA), Echinochloa crus-galli (ECHCG), Ipomoea hederacea (IPOHE),). After cultivation for one day (pre-emergence) or after 8 days cultivation (post-emergence) under controlled conditions in a glasshouse (at 24/160C, day/night; 14 hours light; 65% humidity), the plants are sprayed with an aqueous spray solution derived from the dissolution of the technical active ingredient in a small amount of acetone and a special solvent and emulsifier mixture referred to as IF50 (11.12% Emulsogen EL360 TM+44.44% N-methylpyrrolidone+44.44% Dowanol DPM glycol ether, which was then diluted to required concentration using 0.2% Genapol XO80 (CAS No. 9043-30-5) in water as the diluent. Compounds are applied at the rates stated. The test plants are then grown in a glasshouse under controlled conditions in a glasshouse (at 24/160C, day/night; 14 hours light; 65% humidity) and watered twice daily. After 13 days for pre and post-emergence, the test is evaluated for the percentage damage caused to the plant. The biological activities are shown in the following table on a five-point scale (5=81-100%; 4=61-80%; 3=41-60%; 2=21-40%; 1=0-20%; NT=not tested).

[2] = system: Setaria faberi (SETFA); assay: Post-emergence herbicidal activity, percentage damage to SETFA
Experimental: as §1

[3] = system: Amaranthus retroflexus (AMARE); assay: Post-emergence herbicidal activity, percentage damage to AMARE
Experimental: as §1

[4] = system: Setaria faberi (SETFA); assay: Pre-emergence herbicidal activity, percentage damage to SETFA
Experimental: as §1

[5] = system: Echinochloa crus-galli (ECHCG); assay: Post-emergence herbicidal activity, percentage damage to ECHCG
Experimental: as §1

[6] = system: Ipomoea hederacea (IPOHE); assay: Pre-emergence herbicidal activity, percentage damage to IPOHE
Experimental: as §1

[7] = system: Amaranthus retroflexus (AMARE); assay: Pre-emergence herbicidal activity, percentage damage to AMARE
Experimental: as §1

[8] = system: Echinochloa crus-galli (ECHCG); assay: Pre-emergence herbicidal activity, percentage damage to ECHCG
Experimental: as §1

[9] = system: Ipomoea hederacea (IPOHE); assay: Post-emergence herbicidal activity, percentage damage to IPOHE
Experimental: as §1

[10] = system: Amaranthus palmeri (AMAPA); assay: Pre-emergence herbicidal activity, percentage damage to AMAPA
Experimental: as §1

| Structure (SMILES) | percentage damage caused to the plant (AMAPA) [1] | percentage damage caused to the plant (SETFA) [2] | percentage damage caused to the plant (AMARE) [3] | percentage damage caused to the plant (SETFA) [4] | percentage damage caused to the plant (ECHCG) [5] | percentage damage caused to the plant (IPOHE) [6] | percentage damage caused to the plant (AMARE) [7] | percentage damage caused to the plant (ECHCG) [8] | percentage damage caused to the plant (IPOHE) [9] | percentage damage caused to the plant (AMAPA) [10] |
| --- | --- | --- | --- | --- | --- | --- | --- | --- | --- | --- |
| O=C(O)C[C@@H]1[C@@H]2C[C@@H]2C(=O)N1Cc1ccc(F)cc1 (relative stereo) [A.67, 2-[(1R*,2R*,5S*)-3-[(4-fluorophenyl)methyl]-4-oxo-3-azabicyclo[3.1.0]hexan-2-yl]acetic acid] | 3 (41-60%) | 4 (61-80%) | 1 (0-20%) | 3 (41-60%) | 2 (21-40%) | 4 (61-80%) | 3 (41-60%) | 3 (41-60%) | 2 (21-40%) | 4 (61-80%) |
| O=C(O)C[C@H]1[C@@H]2CCCC[C@@H]2C(=O)N1Cc1cccc(F)c1F (relative stereo) [E.04, 2-[(1S*,3aS*,7aR*)-2-[(2,3-difluorophenyl)methyl]-3-oxo-3a,4,5,6,7,7a-hexahydro-1H-isoindol-1-yl]acetic acid] | 1 (0-20%) | 1 (0-20%) | 1 (0-20%) | 3 (41-60%) | 1 (0-20%) | 1 (0-20%) | 4 (61-80%) | 1 (0-20%) | 1 (0-20%) | 4 (61-80%) |
| O=C(O)C[C@@H]1[C@@H]2C[C@@H]2C(=O)N1Cc1cccc(F)c1F (relative stereo) [A.01, 2-[(1R*,2R*,5S*)-3-[(2,3-difluorophenyl)methyl]-4-oxo-3-azabicyclo[3.1.0]hexan-2-yl]acetic acid] | 2 (21-40%) | 5 (81-100%) | 4 (61-80%) | 5 (81-100%) | 4 (61-80%) | 2 (21-40%) | 4 (61-80%) | 4 (61-80%) | 3 (41-60%) | 2 (21-40%) |
| O=C(O)C[C@@H]1[C@@H]2C[C@@H]2C(=O)N1Cc1cccc(Cl)c1 (relative stereo) [A.70, 2-[(1R*,2R*,5S*)-3-[(3-chlorophenyl)methyl]-4-oxo-3-azabicyclo[3.1.0]hexan-2-yl]acetic acid] | 3 (41-60%) | 4 (61-80%) | 1 (0-20%) | 5 (81-100%) | 3 (41-60%) | 1 (0-20%) | 2 (21-40%) | 4 (61-80%) | 1 (0-20%) | 1 (0-20%) |
| O=C(O)C[C@@H]1[C@@H]2C[C@@H]2C(=O)N1Cc1cccc(F)c1 (relative stereo) [A.64, 2-[(1R*,2R*,5S*)-3-[(3-fluorophenyl)methyl]-4-oxo-3-azabicyclo[3.1.0]hexan-2-yl]acetic acid] | 3 (41-60%) | 5 (81-100%) | 4 (61-80%) | 5 (81-100%) | 3 (41-60%) | 4 (61-80%) | 5 (81-100%) | 4 (61-80%) | 3 (41-60%) | 4 (61-80%) |
| O=C(O)C[C@@H]1[C@@H]2C[C@@H]2C(=O)N1Cc1ccc(F)c(F)c1 (relative stereo) [A.73, 2-[(1R*,2R*,5S*)-3-[(3,4-difluorophenyl)methyl]-4-oxo-3-azabicyclo[3.1.0]hexan-2-yl]acetic acid] | 1 (0-20%) | 4 (61-80%) | 2 (21-40%) | 5 (81-100%) | 3 (41-60%) | 4 (61-80%) | 4 (61-80%) | 3 (41-60%) | 1 (0-20%) | 3 (41-60%) |
| O=C(O)C[C@@H]1[C@@H]2C[C@@H]2C(=O)N1Cc1ccc(F)c(Cl)c1 (relative stereo) [A.82, 2-[(1R*,2R*,5S*)-3-[(3-chloro-4-fluoro)methyl]-4-oxo-3-azabicyclo[3.1.0]hexan-2-yl]acetic acid] | 1 (0-20%) | 4 (61-80%) | 2 (21-40%) | 4 (61-80%) | 1 (0-20%) | 1 (0-20%) | 2 (21-40%) | 1 (0-20%) | 2 (21-40%) | 2 (21-40%) |
| O=C(O)C[C@@H]1[C@@H]2C[C@@H]2C(=O)N1Cc1ccc(F)c(F)c1F (relative stereo) [Compound A.13, 2-[(1R*,2R*,5S*)-3-[(2,3,4-trifluorophenyl)methyl]-4-oxo-3-azabicyclo[3.1.0]hexan-2-yl]acetic acid] | 2 (21-40%) | 5 (81-100%) | 3 (41-60%) | 5 (81-100%) | 3 (41-60%) | 4 (61-80%) | 4 (61-80%) | 3 (41-60%) | 2 (21-40%) | 3 (41-60%) |
| O=C(O)C[C@@H]1[C@@H]2C[C@@H]2C(=O)N1Cc1ccc(Cl)c(F)c1 (relative stereo) [A.79, 2-[(1R*,2R*,5S*)-3-[(3-fluoro-4-chloro)methyl]-4-oxo-3-azabicyclo[3.1.0]hexan-2-yl]acetic acid] | 1 (0-20%) | 4 (61-80%) | 1 (0-20%) | 4 (61-80%) | 1 (0-20%) | 1 (0-20%) | 1 (0-20%) | 2 (21-40%) | 1 (0-20%) | 1 (0-20%) |
| O=C(O)C[C@@H]1[C@@H]2C[C@@H]2C(=O)N1Cc1ccc(Cl)cc1F (relative stereo) [A.76, 2-[(1R*,2R*,5S*)-3-[(2-fluoro-4-chloro)methyl]-4-oxo-3-azabicyclo[3.1.0]hexan-2-yl]acetic acid] | 1 (0-20%) | 3 (41-60%) | 1 (0-20%) | 3 (41-60%) | 1 (0-20%) | 4 (61-80%) | 1 (0-20%) | 1 (0-20%) | 2 (21-40%) | 3 (41-60%) |
